Measurements as given in patent US8952033B2, “4-anilinofuro[2,3-b]quinoline derivatives, their preparation processes, and pharmaceutical compositions comprising the same” (Kaohsiung Medical University, priority 2011, dated 2015).
Marks after values point to notes of the source that are not given here.

Tests used:
[1] = Single-dose pharmacokinetic analysis in CD-1 mice; format: in vivo
Protocol: CD-1 mice were divided into two groups. The first group of mice (n=9) were used to assess the singe-dose pharmacokinetics of the test compounds after intravenous administration, and the second group of mice (n=9) were utilized to assess the singe-dose pharmacokinetics of the test compounds after oral administration. All of the mice were fasted from 4 hours before the administration of the test compounds until 4 hours after the administration of the test compounds.
The assessment for singe-dose pharmacokinetics of the test compounds after intravenous administration was performed as follows. The first group of mice were further randomly divided into three subgroups including compound 13a group (n=3), compound 14a group (n=3), and compound 1 group (n=3). Compounds 13a, 14a, 1 (in polyethylene glycol 400/ethanol/water (30/5/65, v/v/v)) were respectively administered to the mice in compound 13a group, compound 14a group, and compound 1 group at a dose of 2 mg/kg via tail vein injection. Blood samples (0.25 mL) were collected from the mice by virtue of cardiac puncture right before the intravenous administration, and at 2 min, 5 min, 15 min, 30 min, 1 hr, 1.5 hr, 2 hr, 4 hr, 6 hr, 9 hr, 24 hr, and 27 hr after the intravenous administration.
The assessment for singe-dose pharmacokinetics of the test compounds after oral administration was conducted as follows. The second group of mice were further randomly divided into three subgroups including compound 13a group (n=3), compound 14a group (n=3), and compound 1 group (n=3). Compounds 13a, 14a, 1 (in 0.5% methylcellulose) were respectively administered to the mice in compound 13a group, compound 14a group, and compound 1 group at a dose of 20 mg/kg via tube feeding. Blood samples (0.25 mL) were collected from the mice by virtue of cardiac puncture right before the oral administration, and at 15 min, 30 min, 1 hr, 1.5 hr, 2 hr, 4 hr, 6 hr, 9 hr, 24 hr, and 27 hr after the oral administration.
Each of the blood samples was placed in a 0.5 mL Microtainer® tube containing anticoagulant EDTA-K2, followed by mixing evenly. Centrifugation at 7000 g and 4° C. was conducted for 5 minutes. Plasma was collected and was mixed uniformly with a proper amount of acetonitrile, followed by centrifugation. The resultant supernatant was acquired, and was injected into a reversed-phase Biosil ODS column so as to determine the concentration of the respective test compound in plasma (i.e., the plasma concentration of the respective test compound) using a LC-MS/MS system (Waters 2795 LC and Micromass Quattro Ultima). The singe-dose pharmacokinetic parameters of the respective test compound were calculated from the obtained concentration of the respective test compound in plasma (i.e., the obtained plasma concentration of the respective compound) at different time points using WinNonlin Standard Program (version 3.1, Pharsight Corp.)

[2] = tested on: AGS (human stomach adenocarcinoma cell); experiment: Preferential antiproliferative activity, AGS; format: cell-based
Protocol: (§1) Determination of GI50 of compounds 13a, 13c, 14a, 14c, 15a, 16a was conducted substantially according to the method as described in the preceding section A entitled “Evaluation of antiproliferative activity”, except that the normal cell line MRC-5 was also utilized, and that camptothecin and daunorubicin were tested instead of compounds 1, 2, 3. The concentration of the respective test compound, which can reduce absorbance by 50% (compared with DMSO), is regarded as GI50, and can be determined via dose-response curves. Determination of GI50 was conducted thrice for each test compound. GI50 is expressed as mean±SD.
(§2) SI stands for selectivity index and was calculated by substituting GI50 into the following formula: D=E/F (2) where • D=SI • E=GI50 of the respective test compound for cells of the normal cell line • F=GI50 of the respective test compound for cells of the cancer cell line The experimental results are summarized in Table 4. […]

[3] = tested on: SAS (human oral squamous-cell carcinoma cell); experiment: Preferential antiproliferative activity, SAS; format: cell-based
Protocol: as §1, §2

[4] = tested on: SF-268 (central nervous system carcinoma cell); experiment: MTT antiproliferative assay (cell growth %, GI50), SF-268; format: cell-based
Protocol: Antiproliferative activities of the compounds of this invention were evaluated substantially according to the method as described in Tseng, C. […] The cells were treated with the test compounds, i.e., the compounds of this invention (in dimethylsulfoxide (DMSO)), or DMSO for 48 hours.
Before and after the treatment with the test compounds or DMSO, 3-(4,5-dimethylthiazol-2-yl)-2,5-diphenyltetrazolium bromide (MTT, 2 mg/mL, 100 μL) was added to each of the cultures, followed by cultivation for 2 hours. The resultant formazan was dissolved by the addition of DMSO. Absorbance at 570 nm (OD570) was measured using a microtiter plate reader (Dynex MRX-II).
Determination of GI50 was conducted thrice for each test compound. GI50 is expressed as mean±SD.

[5] = tested on: NCI-H1299 (non-small cell lung carcinoma cell); experiment: Preferential antiproliferative activity, NCI-H1299; format: cell-based
Protocol: as §1, §2

[6] = tested on: SKHep-1 (hepatocellular carcinoma cell); experiment: Preferential antiproliferative activity, SKHep; format: cell-based
Protocol: as §1, §2

[7] = tested on: HeLa (human cervical epithelioid carcinoma cell); experiment: Preferential antiproliferative activity, HeLa; format: cell-based
Protocol: as §1, §2

[8] = tested on: CL1-5 (metastatic lung adenocarcinoma cell); experiment: Preferential antiproliferative activity, CL1-5; format: cell-based
Protocol: as §1, §2

[9] = tested on: NCI-H460 (non-small cell lung carcinoma cell); experiment: MTT antiproliferative assay (cell growth %, GI50), NCI-H460; format: cell-based
Procedure, shortened: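 Cells exposed to compounds in DMSO or vehicle for 48 hours; MTT (2 mg/mL) added before and after treatment for 2 hours, formazan dissolved in DMSO and OD570 read. GI50 from three determinations, reported as mean±SD.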

[10] = intravenous administration, 2 mg/kg

C/C(=N\OCCN)c1ccc(Nc2c3ccccc3nc3occc23)cc1 [Compound 13a, (E)-1-(4-(furo[2,3-b]quinolin-4-ylamino)phenyl)ethanone O-2-aminoethyl oxime]
AUC(0-inf) [1, 10]: 362.6 ng·h/mL
CL [1, 10]: 91.9 mL/min/kg
MRT [1, 10]: 2.5 h
Vss [1, 10]: 13.5 L/kg
Vz [1, 10]: 38.8 L/kg
Cmax ([1]; intravenous administration, 2 mg/kg, extrapolated plasma concentration at 0 hr): 1488.4 ng/mL
t1/2 ([1]; intravenous administration, 2 mg/kg, from 0.5-1.5 hr (compd. 1) or 9-27 hr (13a, 14a)): 4.9^d hr
Bioavailability ([1]; oral 20 mg/kg versus intravenous 2 mg/kg): 57.1%
AUC(0-inf) ([1]; oral administration, 20 mg/kg): 2071.6 ng·h/mL
Cmax ([1]; oral administration, 20 mg/kg): 1905.0 ng/mL
MRT ([1]; oral administration, 20 mg/kg): 3.0 h
Tmax ([1]; oral administration, 20 mg/kg): 0.5 h
t1/2 ([1]; oral administration, 20 mg/kg, from 2-6 hr (compd. 1), 2-24 hr (13a), 2-9 hr (14a)): 3.4 h
GI50 ([2]; Homo sapiens, mean±SD): 13.77 ± 0.04 µM
SI AGS ([2]; versus MRC-5): 3.09
GI50 ([3]; Homo sapiens, mean±SD): 15.5 ± 2.6 µM
SI SAS ([3]; versus MRC-5): 2.76
SI SF-268 ([4]; GI50 MRC-5 / GI50 SF-268): 6.84
GI50 ([4]; Homo sapiens, SF-268, mean±SD, read-out: GI50 SF-268): 6.26 ± 1.02 µM
GI50 ([5]; Homo sapiens, NCI-H1299, mean±SD): 3.08 ± 1.12 µM
SI NCI-H1299 ([5]; versus MRC-5): 13.91
GI50 ([6]; Homo sapiens, SK-HEP1, mean±SD): 13.1 ± 3.75 µM
SI SKHep ([6]; versus MRC-5): 3.26
GI50 ([7]; Homo sapiens, HeLa, mean±SD): 8.31 ± 0.6 µM
SI HeLa ([7]; versus MRC-5): 5.16
GI50 ([8]; CL1-5, result based on a single trial): 5.18 µM
SI CL1-5 ([8]; versus MRC-5): 8.27
SI NCI-H460 ([9]; GI50 MRC-5 / GI50 NCI-H460): 68.02
activity at 4000 µg/mL ([9]; Homo sapiens, NCI-H460, 4 mg/ml, 48 hours, MTT): 33%
activity at 20000 µg/mL ([9]; Homo sapiens, NCI-H460, 20 mg/ml, 48 hours, MTT): -1%
GI50 ([9]; Homo sapiens, NCI-H460, mean±SD, read-out: GI50 NCI-H460): 0.63 ± 0.03 µM
